Assay results reported in publication PMC10653909, “PlzD modifies Vibrio vulnificus foraging behavior and virulence in response to elevated c-di-GMP” (mBio, 2023).

Target: T1, PlzD
T1 construct: His-tagged PlzD (aot11_00285, strain ATCC27562), expressed in E. coli BL21(DE3)
Test: micro-equilibrium dialysis with UV absorbance at […] nm, purified protein
Format: binding, Vibrio vulnificus

Nc1nc2c(ncn2[C@@H]2O[C@@H]3COP(=O)(O)O[C@H]4[C@@H](O)[C@H](n5cnc6c(=O)[nH]c(N)nc65)O[C@@H]4COP(=O)(O)O[C@H]3[C@H]2O)c(=O)[nH]1 [c-di-GMP]
Kd: 3.9 µM
